In brackets after ≈: the same amount, converted by molar mass.
Tests used:
Chilo suppressalis = assay: Insecticidal activity against Chilo suppressalis (rice stem borer) larvae assessed as inhibition of incorporation of N-acetyl-[1-14C]glucosamine; format: functional, organism-based
Myzus persicae = assay: Insecticidal activity against Myzus persicae (green peach aphid) in compound treated radish leaf assessed as mortality at 500 ppm; format: functional
Plutella xylostella = assay: Insecticidal activity against Plutella xylostella (diamondback moth) in compound treated radish leaf assessed as mortality at 500 ppm; format: functional
Nephotettix cincticeps = assay: Insecticidal activity against Nephotettix cincticeps (green rice leafhopper) in compound treated rice seedlings assessed as mortality at 500 ppm; format: functional
Tetranychus urticae [1] = assay: Acaricidal activity against Tetranychus urticae (two-spotted spider mite) in compound treated kidney bean leaf assessed as mortality of egg at 1000 ppm at 24 degC measured after 1 week; format: functional; settings: 168 h
Tetranychus urticae [2] = assay: Acaricidal activity against Tetranychus urticae (two-spotted spider mite) in compound treated kidney bean leaf assessed as larvicidal activity; format: functional

For `O=C(NC(=O)c1c(F)cccc1F)Nc1ccc(Cl)cc1` [DIFLUBENZURON], the EC50 (Chilo suppressalis) was 20 nM.

Molecule `Brc1ccccc1C1=NC(c2ccccc2)CO1` (stereo unspecified) has a mortality at 500 ppm (Myzus persicae) of 0%, a mortality at 500 ppm (Plutella xylostella) of 60% and a mortality at 500 ppm (Nephotettix cincticeps) of 0%. It also gave a mortality at 1000 ppm (Tetranychus urticae [1]) of 10% and an LC50 (Tetranychus urticae [2]) of 0.1 µg/mL (≈ 0.331 µM).

With `O=[N+]([O-])c1ccccc1C1=NC(c2ccccc2)CO1` (stereo unspecified) the mortality at 500 ppm (Myzus persicae) was 0%, the mortality at 500 ppm (Plutella xylostella) was 0% and the mortality at 500 ppm (Nephotettix cincticeps) was 0%. For the same molecule, the mortality at 1000 ppm (Tetranychus urticae [1]) was 10% and the LC50 (Tetranychus urticae [2]) was 100 µg/mL (≈ 373 µM).

For `Fc1ccccc1C1=NC(c2ccccc2)CO1` (stereo unspecified), the mortality at 500 ppm (Myzus persicae) was 0%, the mortality at 500 ppm (Plutella xylostella) was 35% and the mortality at 500 ppm (Nephotettix cincticeps) was 10%. It also gave a mortality at 1000 ppm (Tetranychus urticae [1]) of 10% and an LC50 (Tetranychus urticae [2]) of 10 µg/mL (≈ 41.4 µM).

`Fc1cccc(F)c1-c1ncc(-c2ccccc2)o1` was tested, and the mortality at 500 ppm (Myzus persicae) was 0%, the mortality at 500 ppm (Plutella xylostella) was 0% and the mortality at 500 ppm (Nephotettix cincticeps) was 0%. It also gave a mortality at 1000 ppm (Tetranychus urticae [1]) of 0% and an LC50 (Tetranychus urticae [2]) of 100 µg/mL (≈ 389 µM).

In the case of `Clc1ccc(C2=NC(c3ccccc3)CO2)c(Cl)c1` (stereo unspecified), the mortality at 500 ppm (Myzus persicae) is reported as 0%, the mortality at 500 ppm (Plutella xylostella) is reported as 10% and the mortality at 500 ppm (Nephotettix cincticeps) is reported as 0%. For the same molecule, the mortality at 1000 ppm (Tetranychus urticae [1]) was 10% and the LC50 (Tetranychus urticae [2]) was 10 µg/mL (≈ 34.2 µM).

In the case of `Clc1ccccc1C1=NC(c2ccccc2)CO1` (stereo unspecified), the mortality at 500 ppm (Myzus persicae) is reported as 0%, the mortality at 500 ppm (Plutella xylostella) is reported as 35% and the mortality at 500 ppm (Nephotettix cincticeps) is reported as 10%. It also gave a mortality at 1000 ppm (Tetranychus urticae [1]) of 10% and an LC50 (Tetranychus urticae [2]) of 1 µg/mL (≈ 3.88 µM).

`CSc1ccccc1C1=NC(c2ccccc2)CO1` (stereo unspecified) was tested, and the mortality at 500 ppm (Myzus persicae) was 0%, the mortality at 500 ppm (Plutella xylostella) was 35% and the mortality at 500 ppm (Nephotettix cincticeps) was 0%. For the same molecule, the mortality at 1000 ppm (Tetranychus urticae [1]) was 0% and the LC50 (Tetranychus urticae [2]) was 100 µg/mL (≈ 371 µM).

Molecule `COc1cccc(C2=NC(c3ccccc3)CO2)c1` (stereo unspecified) has a mortality at 500 ppm (Myzus persicae) of 0%, a mortality at 500 ppm (Plutella xylostella) of 0% and a mortality at 500 ppm (Nephotettix cincticeps) of 0%. For the same molecule, the mortality at 1000 ppm (Tetranychus urticae [1]) was 0% and the LC50 (Tetranychus urticae [2]) was over 1000 µg/mL.

Molecule `Fc1cccc(F)c1C1=NCC(c2ccccc2)O1` (stereo unspecified) has a mortality at 500 ppm (Myzus persicae) of 85%, a mortality at 500 ppm (Plutella xylostella) of 35% and a mortality at 500 ppm (Nephotettix cincticeps) of 10%. It also gave a mortality at 1000 ppm (Tetranychus urticae [1]) of 0% and an LC50 (Tetranychus urticae [2]) of 1 µg/mL (≈ 3.86 µM).

For `Fc1cccc(F)c1C1=NC(c2ccccc2)CO1` (stereo unspecified), the mortality at 500 ppm (Myzus persicae) was 100%, the mortality at 500 ppm (Plutella xylostella) was 0% and the mortality at 500 ppm (Nephotettix cincticeps) was 35%. It also gave a mortality at 1000 ppm (Tetranychus urticae [1]) of 0% and an LC50 (Tetranychus urticae [2]) of 1 µg/mL (≈ 3.86 µM).
